What was measured:
PC12 cells = assay: PC12 cell differentiation / neuritic outgrowth assay; type: cell-based; details: peptide 10^−9 M
Description: To further investigate the biochemical consequence of the TM-NRP1 in terms of receptor complex formation, we analyzed the formation of complexes in the PC12 neuronal cells model.
PC12 (ATCC: CRL-1721) were grown in D-MEM medium with 4.5 g of glucose/L (GIBCO), 5% FVS, 10% horse serum, glutamine 580 mg/L and antibiotics. For functional assays, PC12 were cultured on 12-wells plates with previously poly-L-lysine-coated glass coverslips. PC12 cells were incubated 1 h with or without pTM-NRP1 peptide (10^−9M) at 37° C. Culture medium was removed and replaced by NGF-containing (100 ng/mL; GIBCO) serum free medium or by conditioned medium obtained from HEK293 cells stably expressing Sema3A or non-transfected cells (control, see BAGNARD et al., 1998 for details) for 12 h at 37° C.
Cells were fixed with 2% formaldehyde for 30 mn followed by 15 mn in 4% formaldehyde. For each condition tested, around 400 cells were analyzed to evaluate neuritic outgrowth (Statistical analyses were made by using χ^2 test).

NRP1 = molecular target: T1, NRP1 (Rattus norvegicus, UniProt Q9QWJ9); assay: AP-Sema3A binding to its receptor NRP1 on C6 glioma cells (luminescence)
T1 construct: Rat C6 glioma cells, which express semaphorin receptors; endogenous in cells; host or cells: rat C6 glioma cells
Description: In order to investigate the NRP1 transmembrane domain role in the linkage NRP1-class III semaphorins, the binding of the ligand Sema3A to its receptor NRP1 on glioma cells was measured in the presence or not of the transmembrane domain peptide of NRP1 (pTM-NRP1 peptide; SEQ ID NO. 1) or of a mutated peptide (mpTM-NRP1; SEQ ID NO. 20, […]). These pTM-NRP1 Peptides have been synthesized by automatic peptidic synthesis (Fmoc chemistry, APPLIED SYSTEM), and analyzed by mass spectrometry. Peptides purity has been estimated by RP-HPLC (BECKMAN) as higher than 90%.
Rat C6 glioma cells, which express semaphorin receptors, has been used to determine the binding capacity of AP-Sema3A, a secreted alkaline phosphatase version of Sema 3A (ADAMS et al., 1997, BAGNARD et al., 1998). These cells were grown and plated in MEM medium (GIBCO) with 10% foetal calf serum (PERBIO), glutamine 0.5 mM (GIBCO) and antibiotics: 100 U/ml penicillin and 100 μg/ml streptomycin (SIGMA).
C6 Cells were cultured in 96-well plates and incubated with or without freshly diluted pTM-NRP1 or pTM-NRP1^mut peptides (10^−12 M to 10^−10 M) for 1 hour at 37° C. The culture medium has been then replaced by conditioned medium of HEK cells stably transfected with a construction expressing AP-Sema 3A (ADAMS et al., EMBO J., vol. 16(20), p: 6077-86, 1997; BAGNARD et al., 1998). Conditioned medium from HEK non transfected cells has been used as an internal control. The pTM-NRP1 Peptide has been synthesized by automatic peptidic synthesis (Fmoc chemistry, APPLIED SYSTEM), and analyzed by mass spectrometry. Peptides purity has been estimated by RP-HPLC (BECKMAN) as higher than 90%, the cells have been washed with PBS and incubated with 50 μl of alkaline phosphatase luminescent substrate (AMERSHAM). The luminescence has been read after 15 minutes with MICROLUMAT PLUS system (BERTHOLD TECHNOLOGIES) according to the manufacturer's instructions. Experiments were done 4 times for each peptide.

NRP1 receptor complex = molecular target: T2, NRP1 receptor complex (Rattus norvegicus, UniProt Q9QWJ9); assay: Formation of NRP1 receptor complexes, sucrose density gradient sedimentation and western blot; type: cell-based; details: C6 cells expressing NRP1 and Plexin-A1, peptide 10^−9 M for 1 h
T2 construct: C6 cells expressing NRP1 and Plexin-A1 were incubated or not with the pTM-NRP1 peptide; endogenous in cells; host or cells: rat C6 glioma cells
Description: To further investigate the role of the transmembrane domain of the NRP1 receptor in the formation of the NRP1 receptor complex, the formation of NRP1 complexes has been determined on C6 cells expressing NRP1 and plexin-A1 in the presence or not of the transmembrane domain peptide of NRP1 (pTM-NRP1 peptide) and of the ligand Sema3A.
C6 cells expressing NRP1 and Plexin-A1 were incubated or not with the pTM-NRP1 peptide (10^−9 M) for 1 h. The culture medium has been then replaced of HER cells stably transfected or not with a construction expressing Sema 3A. Confluent C6 have been harvested with 10 mM EDTA and centrifuged. The pellet has been washed in PBS and then diluted in lysis buffer (Tris-HCL/NaCl; 50/150; pH 8.0) with 0.1% SDS, 1 mM EDTA, 1% NP-40, 0.5% DOC, 2 mM vanadate and proteases inhibitors without SDS (PIERCE). After solubilization for 1 h at 4° C., protein amount is estimated by bicinchoninic acid method (BCA Protein Assay, PIERCE).
Sucrose density gradient sedimentation experiments were based on a step gradient containing 25%, 17%, 10% and 3% sucrose. […]
The membrane has been then incubated 2 hours with polyclonal anti-NRP1 at a 1:1000 dilution (ONCOGENE). […] Immunoreactivity has been then detected with an enhanced chemoluminescence western blot detection system (PIERCE) according to the manufacturer's instructions. […]

ILITIIAMSALGVLLGAVCGVVL [pTM-NRP1]
NGF effect on PC12 cell differentiation (PC12 cells; NGF 100 ng/mL 12 h): preserved | Sema3A induced neurite growth promotion (PC12 cells; Sema3A conditioned medium 12 h): significantly reduced | decrease of binding of AP-Sema3A to NRP1 compared to the absence of peptide (NRP1; C6 cells, peptide 10^−10 M): about 50% | binding of AP-Sema3A to its receptor NRP1 on C6 cells (NRP1; peptide 10^−12 M to 10^−10 M, 1 hour): blocked in a dose dependent manner | oligomerization of NRP1 in the presence of Sema 3A (NRP1 receptor complex): inhibited

From US8956622B2, “Peptidic antagonists of class III semaphorins/neuropilins complexes” (INSERM—Institut National de la Sante et de la Recherche …, priority 2005, dated 2015)
